PubChem BioAssay AID248 (DTP/NCI, 2004)
Several values for one entry are separate records, joined by “and”; a condition that tells them apart may be missing. Identical values can stand only once. Inconclusive results and toxic doses are left out. Cut-off read from the data, not from the text of the source: active = T/C of 150% or more; inactive = T/C below 125%.

Tested on: L1210 leukemia ip in BDF1 mice, survival T/C
Test: NCI In Vivo Anticancer Drug Screen. Data for tumor model L1210 Leukemia (intraperitoneal) in B6D2F1 (BDF1) mice
Details: endpoint: mean survival time, higher = longer survival
Procedure, shortened: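 Transplanted-tumor mice were given test agent; controls received vehicle only. Survival readings from the two groups were divided (treated over control).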

[1] = dose: 100.0 mg/kg/injection, schedule: Q04DX003 (ip), vehicle: Klucel (hydroxypropylcellulose) (HPC)
[2] = dose: 200.0 mg/kg/injection, schedule: Q04DX003 (ip), vehicle: Klucel (hydroxypropylcellulose) (HPC)
[3] = dose: 100.0 mg/kg/injection, schedule: Q01DX001 (ip), vehicle: carboxymethylcellulose (CMC)
[4] = dose: 200.0 mg/kg/injection, schedule: Q01DX001 (ip), vehicle: carboxymethylcellulose (CMC)
[5] = dose: 400.0 mg/kg/injection, schedule: Q01DX001 (ip), vehicle: carboxymethylcellulose (CMC)

Measured: T/C

COc1ccc(NC(=O)Oc2ccccc2Cc2ccccc2)cc1
inactive: dose: 50.0 mg/kg/injection, schedule: Q01DX009 (ip), vehicle: Klucel (hydroxypropylcellulose) (HPC) 95 % of control | dose: 100.0 mg/kg/injection, schedule: Q01DX009 (ip), vehicle: Klucel (hydroxypropylcellulose) (HPC) 94 % of control | [1] 97 % of control | dose: 200.0 mg/kg/injection, schedule: Q01DX009 (ip), vehicle: Klucel (hydroxypropylcellulose) (HPC) 103 % of control | [2] 91 % of control

CC(c1ccccc1)N1COc2ccc3ccccc3c2C1 (stereo not given)
inactive: dose: 50.0 mg/kg/injection, schedule: Q01DX001 (ip), vehicle: carboxymethylcellulose (CMC) 97 % of control | dose: 50.0 mg/kg/injection, schedule: Q01DX015 (ip), vehicle: carboxymethylcellulose (CMC) 96 % of control | [3] 93 % of control | dose: 100.0 mg/kg/injection, schedule: Q01DX015 (ip), vehicle: carboxymethylcellulose (CMC) 96 % of control | dose: 100.0 mg/kg/injection, schedule: Q04DX003 (ip), vehicle: saline with Tween-80 94 % of control | [4] 103 % of control | dose: 200.0 mg/kg/injection, schedule: Q01DX015 (ip), vehicle: carboxymethylcellulose (CMC) 97 % of control | dose: 200.0 mg/kg/injection, schedule: Q04DX003 (ip), vehicle: saline with Tween-80 93 % of control | [5] 104 % of control | dose: 400.0 mg/kg/injection, schedule: Q01DX015 (ip), vehicle: carboxymethylcellulose (CMC) 90 % of control | dose: 400.0 mg/kg/injection, schedule: Q04DX003 (ip), vehicle: saline with Tween-80 88 % of control

C/C(=N\NC(=S)Nc1cc(Cl)ccc1Cl)c1cc([N+](=O)[O-])c(O)cc1O
inactive: dose: 100.0 mg/kg/injection, schedule: Q01DX001 (ip), vehicle: Klucel (hydroxypropylcellulose) (HPC) 104 % of control | dose: 200.0 mg/kg/injection, schedule: Q01DX001 (ip), vehicle: Klucel (hydroxypropylcellulose) (HPC) 101 % of control | dose: 400.0 mg/kg/injection, schedule: Q01DX001 (ip), vehicle: Klucel (hydroxypropylcellulose) (HPC) 93 % of control

CCC(=O)CC1CCCC(CC(=O)CC)N1 (stereo not given)
inactive: dose: 75.0 mg/kg/injection, schedule: Q01DX001 (ip), vehicle: saline 96 % of control | dose: 150.0 mg/kg/injection, schedule: Q01DX001 (ip), vehicle: saline 104 % of control

c1ccc(-c2cnnn2-c2ccccc2)cc1
inactive: dose: 100.0 mg/kg/injection, schedule: Q01DX001 (ip), vehicle: saline with Tween-80 105 % of control | dose: 200.0 mg/kg/injection, schedule: Q01DX001 (ip), vehicle: saline with Tween-80 100 % of control | dose: 400.0 mg/kg/injection, schedule: Q01DX001 (ip), vehicle: saline with Tween-80 105 % of control

O=S(c1ccccc1)c1c(Cl)c(Cl)nc(Cl)c1Cl (stereo not given)
inactive: dose: 6.25 mg/kg/injection, schedule: Q01DX009 (ip), vehicle: Klucel (hydroxypropylcellulose) (HPC) 104 % of control | dose: 12.5 mg/kg/injection, schedule: Q01DX009 (ip), vehicle: Klucel (hydroxypropylcellulose) (HPC) 106 % of control | dose: 25.0 mg/kg/injection, schedule: Q01DX009 (ip), vehicle: Klucel (hydroxypropylcellulose) (HPC) 104 % of control | [1] 105 % of control | [2] 90 % of control

c1ccc2c(c1)ccc1[s+]cccc12
inactive: dose: 100.0 mg/kg/injection, schedule: Q04DX003 (ip), vehicle: acetone 100 % of control | dose: 200.0 mg/kg/injection, schedule: Q04DX003 (ip), vehicle: acetone 105 % of control

N#CC1CC=CCC1 (stereo not given)
inactive: dose: 6.25 mg/kg/injection, schedule: Q01DX009 (ip), vehicle: saline 113 % of control | dose: 6.25 mg/kg/injection, schedule: Q04DX003 (ip), vehicle: saline 101 % of control | dose: 12.5 mg/kg/injection, schedule: Q01DX009 (ip), vehicle: saline 121 % of control | dose: 12.5 mg/kg/injection, schedule: Q04DX003 (ip), vehicle: saline 90 % of control | dose: 25.0 mg/kg/injection, schedule: Q01DX009 (ip), vehicle: saline 103 % of control | dose: 25.0 mg/kg/injection, schedule: Q04DX003 (ip), vehicle: saline 113 % of control

CCCCCCCCCCCCCCCC(=O)N(CC)CC
inactive: [3] 104 % of control | dose: 100.0 mg/kg/injection, schedule: Q01DX009 (ip), vehicle: carboxymethylcellulose (CMC) 98 % of control and 104 % of control | dose: 100.0 mg/kg/injection, schedule: Q04DX003 (ip), vehicle: carboxymethylcellulose (CMC) 96 % of control | [4] 96 % of control | dose: 200.0 mg/kg/injection, schedule: Q01DX009 (ip), vehicle: carboxymethylcellulose (CMC) 96 % of control and 102 % of control | dose: 200.0 mg/kg/injection, schedule: Q04DX003 (ip), vehicle: carboxymethylcellulose (CMC) 92 % of control | [5] 95 % of control | dose: 400.0 mg/kg/injection, schedule: Q01DX009 (ip), vehicle: carboxymethylcellulose (CMC) 96 % of control and 89 % of control | dose: 400.0 mg/kg/injection, schedule: Q04DX003 (ip), vehicle: carboxymethylcellulose (CMC) 94 % of control

O=C(O)CN(CC(=O)O)Cc1ccccc1
inactive: dose: 5.0 mg/kg/injection, schedule: Q01DX001 (ip), vehicle: saline 102 % of control | dose: 10.0 mg/kg/injection, schedule: Q01DX001 (ip), vehicle: saline 102 % of control | dose: 20.0 mg/kg/injection, schedule: Q01DX001 (ip), vehicle: saline 100 % of control | dose: 40.0 mg/kg/injection, schedule: Q01DX001 (ip), vehicle: saline 100 % of control
